Reference: the NIST ThermoML archive (doi:10.1016/j.jct.2019.01.024)

Experiment: mn = molality of the nth substance listed, in mol/kg
Conditions: 101 kPa, Liquid; for viscosity: Falling or rolling sphere viscometry; for speed of sound: Frequency=3 MHz, Single path-length method; for mass density: Vibrating tube method

NNC(=O)c1ccncc1 [isonicotinic acid hydrazide] + O
Conditions	mass density [kg/m3]	speed of sound [m/s]	viscosity [mPa·s]
293.15 K, m1 = 0.0255	999.11	1485.3	1.006
293.15 K, m1 = 0.0494	999.92	1486.9	1.012
293.15 K, m1 = 0.0754	1000.8	1488.6	1.018
293.15 K, m1 = 0.1	1001.64	–	1.024
293.15 K, m1 = 0.1253	1002.5	1491.8	1.03
293.15 K, m1 = 0.15	1003.35	1493.4	1.037
293.15 K, m1 = 0.2002	1005.07	1496.5	1.049
293.15 K, m1 = 0.2492	1006.75	1499.4	1.062
293.15 K, m1 = 0.3001	1008.5	1502.4	1.075
293.15 K, m1 = 0.3489	1010.18	1505.1	1.088
293.15 K, m1 = 0.4003	1011.96	1507.9	1.102
298.15 K, m1 = 0.0255	997.93	1498.6	0.8937
298.15 K, m1 = 0.0494	998.74	1500.2	0.8984
298.15 K, m1 = 0.0754	999.61	1501.9	0.9036
298.15 K, m1 = 0.1	1000.45	–	0.9086
298.15 K, m1 = 0.1253	1001.3	1505.1	0.9138
298.15 K, m1 = 0.15	1002.14	1506.6	0.9191
298.15 K, m1 = 0.2002	1003.84	1509.7	0.9298
298.15 K, m1 = 0.2492	1005.51	1512.6	0.9401
298.15 K, m1 = 0.3001	1007.25	1515.6	0.951
298.15 K, m1 = 0.3489	1008.91	1518.4	0.9616
298.15 K, m1 = 0.4003	1010.67	1521.3	0.9729
303.15 K, m1 = 0.0255	996.53	1510.1	0.8001
303.15 K, m1 = 0.0494	997.34	1511.6	0.804
303.15 K, m1 = 0.0754	998.21	1513.3	0.8084
303.15 K, m1 = 0.1	999.03	–	0.8125
303.15 K, m1 = 0.1253	999.88	1516.4	0.8169
303.15 K, m1 = 0.15	1000.71	1517.9	0.8213
303.15 K, m1 = 0.2002	1002.4	1521	0.8301
303.15 K, m1 = 0.2492	1004.05	1523.9	0.8389
303.15 K, m1 = 0.3001	1005.77	1526.9	0.8482
303.15 K, m1 = 0.3489	1007.42	1529.7	0.8571
303.15 K, m1 = 0.4003	1009.16	1532.6	0.8661
308.15 K, m1 = 0.0255	994.92	1521.4	0.7213
308.15 K, m1 = 0.0494	995.72	1522.9	0.7246
308.15 K, m1 = 0.0754	996.58	1524.5	0.7282
308.15 K, m1 = 0.1	997.4	–	0.7317
308.15 K, m1 = 0.1253	998.25	1527.6	0.7353
308.15 K, m1 = 0.15	999.08	1529.1	0.7389
308.15 K, m1 = 0.2002	1000.75	1532.2	0.7463
308.15 K, m1 = 0.2492	1002.39	1535.1	0.7537
308.15 K, m1 = 0.3001	1004.1	1538.1	0.7612
308.15 K, m1 = 0.3489	1005.74	1540.9	0.7687
308.15 K, m1 = 0.4003	1007.46	1543.8	0.7765
313.15 K, m1 = 0.0255	993.1	1528.4	0.6545
313.15 K, m1 = 0.0494	993.89	1529.8	0.6572
313.15 K, m1 = 0.0754	994.75	1531.4	0.6602
313.15 K, m1 = 0.1	995.57	–	0.6632
313.15 K, m1 = 0.1253	996.41	1534.4	0.6663
313.15 K, m1 = 0.15	997.23	1535.8	0.6693
313.15 K, m1 = 0.2002	998.9	1538.8	0.6756
313.15 K, m1 = 0.2492	1000.53	1541.7	0.6818
313.15 K, m1 = 0.3001	1002.22	1544.6	0.6882
313.15 K, m1 = 0.3489	1003.84	1547.3	0.6944
313.15 K, m1 = 0.4003	1005.55	1550.2	0.7007
318.15 K, m1 = 0.0255	991.08	1534.5	0.5987
318.15 K, m1 = 0.0494	991.87	1535.9	0.6009
318.15 K, m1 = 0.0754	992.73	1537.4	0.6034
318.15 K, m1 = 0.1	993.54	–	0.6058
318.15 K, m1 = 0.1253	994.38	1540.3	0.6084
318.15 K, m1 = 0.15	995.19	1541.7	0.611
318.15 K, m1 = 0.2002	996.85	1544.5	0.6163
318.15 K, m1 = 0.2492	998.46	1547.3	0.6215
318.15 K, m1 = 0.3001	1000.14	1550.2	0.6268
318.15 K, m1 = 0.3489	1001.75	1552.9	0.6321
318.15 K, m1 = 0.4003	1003.44	1555.7	0.6375
